Source: PMC5783306 (Nature, 2017)

T1: TAX-4 (Caenorhabditis elegans, UniProt Q03611)
T1 sequence (Q03611 1-733): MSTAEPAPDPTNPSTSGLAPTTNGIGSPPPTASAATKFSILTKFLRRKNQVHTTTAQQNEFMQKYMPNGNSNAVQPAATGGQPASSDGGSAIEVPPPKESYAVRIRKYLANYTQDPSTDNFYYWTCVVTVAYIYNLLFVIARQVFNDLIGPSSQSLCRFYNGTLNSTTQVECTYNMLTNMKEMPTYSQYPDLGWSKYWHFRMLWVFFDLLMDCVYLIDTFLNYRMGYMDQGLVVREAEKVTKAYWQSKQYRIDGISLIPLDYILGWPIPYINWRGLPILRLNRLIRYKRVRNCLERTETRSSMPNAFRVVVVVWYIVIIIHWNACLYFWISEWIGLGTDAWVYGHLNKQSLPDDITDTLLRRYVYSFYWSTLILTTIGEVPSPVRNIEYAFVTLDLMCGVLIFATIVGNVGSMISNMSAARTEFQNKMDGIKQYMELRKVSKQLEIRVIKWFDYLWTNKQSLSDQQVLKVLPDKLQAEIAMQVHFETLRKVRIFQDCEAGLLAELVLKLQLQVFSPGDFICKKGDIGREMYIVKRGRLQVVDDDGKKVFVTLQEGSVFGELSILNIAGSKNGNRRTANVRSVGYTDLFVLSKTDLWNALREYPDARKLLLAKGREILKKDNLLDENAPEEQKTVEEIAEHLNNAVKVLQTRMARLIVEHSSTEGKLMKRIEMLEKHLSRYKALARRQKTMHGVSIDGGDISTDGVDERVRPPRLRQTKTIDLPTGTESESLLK

B1: TAX-4 (cyclic nucleotide-gated channel CNGA subunit from C. elegans), cGMP-bound (natural protein, UniProt Q03611 1-733, looked up)
chain: MSTAEPAPDPTNPSTSGLAPTTNGIGSPPPTASAATKFSILTKFLRRKNQVHTTTAQQNEFMQKYMPNGNSNAVQPAATGGQPASSDGGSAIEVPPPKESYAVRIRKYLANYTQDPSTDNFYYWTCVVTVAYIYNLLFVIARQVFNDLIGPSSQSLCRFYNGTLNSTTQVECTYNMLTNMKEMPTYSQYPDLGWSKYWHFRMLWVFFDLLMDCVYLIDTFLNYRMGYMDQGLVVREAEKVTKAYWQSKQYRIDGISLIPLDYILGWPIPYINWRGLPILRLNRLIRYKRVRNCLERTETRSSMPNAFRVVVVVWYIVIIIHWNACLYFWISEWIGLGTDAWVYGHLNKQSLPDDITDTLLRRYVYSFYWSTLILTTIGEVPSPVRNIEYAFVTLDLMCGVLIFATIVGNVGSMISNMSAARTEFQNKMDGIKQYMELRKVSKQLEIRVIKWFDYLWTNKQSLSDQQVLKVLPDKLQAEIAMQVHFETLRKVRIFQDCEAGLLAELVLKLQLQVFSPGDFICKKGDIGREMYIVKRGRLQVVDDDGKKVFVTLQEGSVFGELSILNIAGSKNGNRRTANVRSVGYTDLFVLSKTDLWNALREYPDARKLLLAKGREILKKDNLLDENAPEEQKTVEEIAEHLNNAVKVLQTRMARLIVEHSSTEGKLMKRIEMLEKHLSRYKALARRQKTMHGVSIDGGDISTDGVDERVRPPRLRQTKTIDLPTGTESESLLK

Legend:
TAX-4 = molecular target: T1, TAX-4; test: cryo-EM structure at […] Å of cGMP-bound channel; assay type: cell-based
cryo-EM structure = molecular target: the molecule itself; test: cryo-EM structure

Molecule | EC50 (TAX-4) [nM] | stoichiometry N (cryo-EM structure)
Nc1nc2c(ncn2[C@@H]2O[C@@H]3COP(=O)(O)O[C@H]3[C@H]2O)c(=O)[nH]1 [cGMP] | 160 | –
B1 | – | 4
